Experimental findings from PubChem BioAssay AID202 (DTP/NCI, 2004) are described below.

In general, T/C refers to the ratio of treated to control.

Where “and” joins values, the source holds several entries; their conditions need not be identical. Identical values can stand only once.

The test relates to HT29 xenograft, nude mice, s.c., tumor weight T/C%. The experiment in a line: NCI In Vivo Anticancer Drug Screen. Data for tumor model HT29;CX-1 Human Adenocarcinoma (MER+) (subcutaneous) in NU/NU Swiss (nude) mice. The note with it: endpoint: optimum tumor weight change, higher = larger tumour. The procedure: The antitumor activity of compounds was measured in mice bearing transplantable tumors. Survival or tumor size were measured and the results are expressed as the measurement made in the treated group (T) divided by the measurement made in the vehicle treated control group (C). The tumor model used in this assay is HT29;CX-1 Human Adenocarcinoma (MER+) (subcutaneous) in NU/NU Swiss (nude) mice

[1] abbreviates: dose: 50.0 mg/kg/injection, schedule: Q04DX003 (ip), vehicle: saline.
The mark [2] stands for this setting: dose: 100.0 mg/kg/injection, schedule: Q04DX003 (ip), vehicle: saline.
Where [3] appears, read: dose: 200.0 mg/kg/injection, schedule: Q04DX003 (ip), vehicle: saline.
The mark [4] stands for this setting: dose: 100.0 mg/kg/injection, schedule: Q04DX003 (ip), vehicle: suspension in saline.
Where [5] appears, read: dose: 200.0 mg/kg/injection, schedule: Q04DX003 (ip), vehicle: suspension in saline.
The mark [6] stands for this setting: dose: 200.0 mg/kg/injection, schedule: Q04DX003 (ip), vehicle: saline with Tween-80.
[7] abbreviates: dose: 25.0 mg/kg/injection, schedule: Q04DX003 (ip), vehicle: Klucel (hydroxypropylcellulose) (HPC).
Setting [8] is: dose: 50.0 mg/kg/injection, schedule: Q04DX003 (ip), vehicle: Klucel (hydroxypropylcellulose) (HPC).
[9] abbreviates: dose: 100.0 mg/kg/injection, schedule: Q04DX003 (ip), vehicle: Klucel (hydroxypropylcellulose) (HPC).

For the compound `COc1cc([C@@H]2c3cc4c(c(O)c3C[C@H]3COC(=O)[C@@H]32)OCO4)cc(OC)c1OC`, the T/C was 83 % of control (dose: 2.5 mg/kg/injection, schedule: Q04DX003 (ip), vehicle: saline); 114 % of control (dose: 5.0 mg/kg/injection, schedule: Q04DX003 (ip), vehicle: saline); 52 % of control (dose: 10.0 mg/kg/injection, schedule: Q04DX003 (ip), vehicle: saline).
Take `c1cc2n(n1)CCN2`: the T/C by setting is: under setting [1], 42 % of control; under setting [2], 50 % of control; under setting [3], 63 % of control; (dose: 400.0 mg/kg/injection, schedule: Q04DX003 (ip), vehicle: saline) 41 % of control.
`CC[C@](O)(C(=O)O)c1cc2n(c(=O)c1CO)Cc1cc3ccccc3nc1-2`: under “dose: 9.0 mg/kg/injection, schedule: Q04DX003 (ip), vehicle: saline”, the T/C is 36 % of control.
Regarding `CO[C@H]1C[C@](C)(O)Cc2cc3c(c(O)c21)C(=O)c1c(O)cc2c(c1C3=O)O[C@@H]1O[C@@]2(C)[C@H](O)[C@@H](N(C)C)[C@@H]1O`, the T/C (dose: 3.13 mg/kg/injection, schedule: Q04DX003 (ip), vehicle: other) is 97 % of control; the T/C (dose: 6.25 mg/kg/injection, schedule: Q04DX003 (ip), vehicle: other) is 124 % of control; the T/C (dose: 12.5 mg/kg/injection, schedule: Q04DX003 (ip), vehicle: other) is 68 % of control; the T/C (dose: 25.0 mg/kg/injection, schedule: Q04DX003 (ip), vehicle: other) is 61 % of control and 75 % of control.
Take `CC(CN1CC(=O)NC(=O)C1)N1CC(=O)NC(=O)C1` (stereo not drawn): the T/C (dose: 50.0 mg/kg/injection, schedule: Q04DX003 (ip), vehicle: suspension in saline) was 73 % of control; the T/C under setting [4] is 50 % of control; the T/C under setting [5] is 57 % of control.
Turning to `CC(=O)OCC1OC(n2cc(CBr)nn2)C(OC(C)=O)C(OC(C)=O)C1OC(C)=O` (stereo not drawn), the T/C (dose: 50.0 mg/kg/injection, schedule: Q04DX003 (ip), vehicle: saline with Tween-80) is 78 % of control; the T/C (dose: 100.0 mg/kg/injection, schedule: Q04DX003 (ip), vehicle: saline with Tween-80) is 92 % of control; the T/C under setting [6] was 69 % of control.
As for `COc1cccc2c1C(=O)c1c(O)c3c(c(O)c1C2=O)C[C@@](O)(/C(C)=N\O)C[C@@H]3OC1CC(N)C(O)C(C)O1` (stereo partly drawn), the T/C was 68 % of control (dose: 6.25 mg/kg/injection, schedule: Q04DX003 (ip), vehicle: saline); 63 % of control (dose: 12.5 mg/kg/injection, schedule: Q04DX003 (ip), vehicle: saline); 56 % of control (dose: 25.0 mg/kg/injection, schedule: Q04DX003 (ip), vehicle: saline).
Consider `CN(C)c1nc(N(C)C)nc(N(C)C)n1`, for which the T/C was 91 % of control and 114 % of control (dose: 60.0 mg/kg/injection, schedule: Q07DX005 (ip), vehicle: Klucel (hydroxypropylcellulose) (HPC)); 38 % of control and 47 % of control (dose: 120.0 mg/kg/injection, schedule: Q01DX005 (ip), vehicle: Klucel (hydroxypropylcellulose) (HPC)); 72 % of control and 78 % of control (dose: 120.0 mg/kg/injection, schedule: Q07DX005 (ip), vehicle: Klucel (hydroxypropylcellulose) (HPC)); 27 % of control and 38 % of control (dose: 240.0 mg/kg/injection, schedule: Q04DX005 (ip), vehicle: Klucel (hydroxypropylcellulose) (HPC)); 37 % of control (dose: 240.0 mg/kg/injection, schedule: Q07DX005 (ip), vehicle: Klucel (hydroxypropylcellulose) (HPC)).
`O=S(CCCl)CCCl`: the T/C is 72 % of control under setting [7], 51 % of control under setting [8] and 65 % of control under setting [9].
For the compound `NC(=O)c1ccc[n+](Cc2c(Cl)cccc2Cl)c1`, the T/C (dose: 48.0 mg/kg/injection, schedule: Q04DX003 (ip), vehicle: saline) was 122 % of control.
For the compound `CN(C)N=Nc1cn[nH]c1C(N)=O`, the T/C was 69 % of control under setting [7]; 123 % of control under setting [8]; 79 % of control under setting [9]; 88 % of control (dose: 200.0 mg/kg/injection, schedule: Q04DX003 (ip), vehicle: Klucel (hydroxypropylcellulose) (HPC)).
Turning to `CC(=O)Oc1ccc[nH]c1=O`, the T/C runs as follows: under setting [6], 96 % of control; (dose: 400.0 mg/kg/injection, schedule: Q04DX003 (ip), vehicle: saline with Tween-80) 111 % of control.
With `CC(=O)OCC1OC(n2ccc(N)nc2=O)C(OC(C)=O)C1OC(C)=O` (stereo not drawn), the T/C reads like this: under setting [4], 65 % of control and 89 % of control; under setting [5], 56 % of control.
For `N/C(=N\O)c1cn(C2OC(CO)C(O)C2O)c2ncnc(N)c12` (stereo not drawn), the T/C (dose: 5.0 mg/kg/injection, schedule: Q04DX003 (ip), vehicle: Klucel (hydroxypropylcellulose) (HPC)) is 91 % of control; the T/C (dose: 10.0 mg/kg/injection, schedule: Q04DX003 (ip), vehicle: Klucel (hydroxypropylcellulose) (HPC)) is 63 % of control; the T/C (dose: 20.0 mg/kg/injection, schedule: Q04DX003 (ip), vehicle: Klucel (hydroxypropylcellulose) (HPC)) is 47 % of control.
For `Nc1nc(N)c2cc(CNc3ccc(C(=O)NC(CC(=O)O)CC(=O)O)cc3)ccc2n1`, the T/C under setting [8] is 84 % of control.
As to `Cc1c(N)nc([C@H](CC(N)=O)NC[C@H](N)C(N)=O)nc1C(=O)N[C@H](C(=O)N[C@H](C)[C@@H](O)[C@H](C)C(=O)N[C@H](C(=O)NCCc1nc(-c2nc(C(=O)NCCC[S+](C)C)cs2)cs1)[C@@H](C)O)C(OC1OC(CO)C(O)C(O)C1OC1OC(CO)C(O)C(OC(N)=O)C1O)c1cnc[nH]1` (stereo partly drawn), the T/C (dose: 3.75 mg/kg/injection, schedule: Q04DX003 (ip), vehicle: saline) is 71 % of control; the T/C (dose: 4.0 mg/kg/injection, schedule: Q04DX003 (ip), vehicle: saline) is 64 % of control; the T/C (dose: 7.5 mg/kg/injection, schedule: Q04DX003 (ip), vehicle: saline) is 50 % of control and 70 % of control; the T/C (dose: 7.5 mg/kg/injection, schedule: Q04DX004 (ip), vehicle: saline) was 37 % of control; the T/C (dose: 8.0 mg/kg/injection, schedule: Q04DX003 (ip), vehicle: saline) is 49 % of control; the T/C (dose: 15.0 mg/kg/injection, schedule: Q04DX004 (ip), vehicle: saline) is 26 % of control. Besides, the T/C (dose: 16.0 mg/kg/injection, schedule: Q04DX003 (ip), vehicle: saline) is 28 % of control and 33 % of control; the T/C (dose: 32.0 mg/kg/injection, schedule: Q04DX003 (ip), vehicle: saline) is 11 % of control.
Regarding `CCCC(=O)OCc1cc(=O)n(C)c2c3c4c(cc12)c(C)cc(=O)n4CO3`, the T/C under setting [8] was 53 % of control.
With `CN(N=O)C(=O)N[C@@H](C=O)[C@@H](O)[C@H](O)[C@H](O)CO`, the T/C under setting [2] was 82 % of control and the T/C under setting [3] was 98 % of control.
Consider `C1CCC2[N-]CC3CCCCC3[N-]CC3CCCCC3[N-]CC3CCCCC3[N-]CC2C1.[Cu]` (stereo not drawn), for which the T/C is 62 % of control (dose: 3.13 mg/kg/injection, schedule: Q04DX003 (ip), vehicle: Klucel (hydroxypropylcellulose) (HPC)); 90 % of control (dose: 6.25 mg/kg/injection, schedule: Q04DX003 (ip), vehicle: Klucel (hydroxypropylcellulose) (HPC)); 70 % of control (dose: 12.5 mg/kg/injection, schedule: Q04DX003 (ip), vehicle: Klucel (hydroxypropylcellulose) (HPC)); 94 % of control under setting [7].
For the compound `N=c1ccn2c(n1)OC1C(O)C(CO)OC12` (stereo not drawn), the T/C is, setting by setting: under setting [1], 70 % of control; under setting [2], 49 % of control; under setting [3], 71 % of control and 77 % of control; (dose: 800.0 mg/kg/injection, schedule: Q04DX003 (ip), vehicle: saline) 40 % of control.
Regarding `Cc1c(N)nc(C(CC(N)=O)NCC(N)C(N)=O)nc1C(=O)NC(C(=O)NC(C)C(O)CC(=O)NC(C(=O)NC(OC1OC(C)C(N)C(O)C1O)C(O)c1nc(-c2nc(C(=O)NCCCC(N)CC(=O)NCCCNCCCCN)cs2)cs1)C(C)O)C(OC1OC(CO)C(O)C(O)C1OC1OC(CO)C(O)C(OC(N)=O)C1O)c1cnc[nH]1` (stereo not drawn), the T/C is 92 % of control (dose: 0.5 mg/kg/injection, schedule: Q04DX003 (ip), vehicle: saline); 45 % of control (dose: 1.0 mg/kg/injection, schedule: Q04DX003 (ip), vehicle: saline); 39 % of control (dose: 2.0 mg/kg/injection, schedule: Q04DX003 (ip), vehicle: saline).
As for `O=C(NC1CCCCC1)OCc1c(COC(=O)NC2CCCCC2)c(-c2ccc(Cl)c(Cl)c2)n2c1CCC2`, the T/C is 96 % of control under setting [4]; 90 % of control under setting [5]; 92 % of control (dose: 400.0 mg/kg/injection, schedule: Q04DX003 (ip), vehicle: suspension in saline); 65 % of control (dose: 800.0 mg/kg/injection, schedule: Q04DX003 (ip), vehicle: suspension in saline).
